From publication PMC6609034, “Unraveling the role of the secretor antigen in human rotavirus attachment to histo-blood group antigens” (PLoS Pathogens, 2019)

Experiments:
[1] = tested on: VP8* P[8]c binding to the H1 antigen; assay: Binding blocking assay, immobilized H1 antigen; parameters: species or system human rotavirus; settings: soluble sugar at 20 mM
Method: (§1) To confirm the binding of the VP8* from the P[8] genotype to the H type-1 precursor LNB, a blocking assay was performed using soluble LNB and its related disaccharide galacto-N-biose (Gal-β-1,3-GalNAc; GNB) produced and purified in our laboratory as previously described.
(§2) Streptavidin microtiter plates were coated with biotinylated H type-1 antigen or LNB at 2 μg/ml with water and incubated for 1 hour at 37°C, followed by an overnight incubation at 4°C. Blocking assays were performed in parallel, using glass tubes containing the P[8]c and P[8]Wa VP8* protein at their EC50 for each ligand and 20 mM of each of the soluble disaccharides (LNB and GNB) and monosaccharides (D-galactose, GlcNAc and GalNAc). A positive binding control without sugar was also included. The tubes containing the mixes of VP8* with sugars were maintained 1 hour at 37°C, followed by an overnight incubation at 4°C. The next day the coated streptavidin plates were washed with PBS-T, the VP8*-sugar solutions were added to the plates and incubated during 4 hours at 4°C. The plates were washed three times with PBS-T and detection of the interactions was performed as described above. The results are presented as the percentage (%) of binding of each condition compared to the binding of the positive binding control (without blocking sugar). All experiments were performed in triplicate.

VP8* P[8] = assay: ELISA-like binding assay to biotinylated HBGAs; parameters: species or system human rotavirus; settings: biotinylated PAA glycan 2 μg/ml, VP8* 10 μg/ml
Description: (§3) A panel of biotinylated sugar antigens including Le^a, Le^b, Le^c (lacto-N-biose; LNB), H type-1, H type-2 and blood group A and B trisaccharides were purchased from Glyconz (Fig 1 and S1 Table). These glycans are biotinylated neoglyconjugates of a poly[N-(2-hydroxyethyl)acrylamide] (PAA) with a size from 30 to 50 KDa. This forms a flexible polymer ideal for a multivalent presentation of glycans. Immobilized streptavidin F96 black plates (Nunc) were coated with the biotinylated oligosaccharides (2 μg/ml) in milli-Q water and incubated during 1 hour at 37°C. After functionalization the plates were washed once with PBS containing 0.05% of Tween 20 (PBS-T) and the VP8* proteins were added (10 μg/ml) and incubated at 4°C overnight. After three washes with PBS-T, a rabbit polyclonal antibody anti GST (1:1,000) (Abcam) was added and the plates were incubated one hour at 37°C. Then, the plates were washed three times with PBS-T and incubated for 1 h at 37°C with 1:10,000 dilution of horseradish peroxidase (HRP)-conjugated goat anti-rabbit (Abcam). After three washes with PBS-T, the binding was detected using QuantaBlue reagent (ThermoFisher) kit, as recommended by the manufacturer. Fluorescence units were registered by a MultiScan microplate reader. All the binding assays were performed in triplicate.

VP8* P[9] = assay: ELISA-like binding assay to biotinylated HBGAs; parameters: species or system human rotavirus; settings: biotinylated PAA glycan 2 μg/ml, VP8* 10 μg/ml
Description: as §3

VP8* P[14] = assay: ELISA-like binding assay to biotinylated HBGAs; parameters: species or system human rotavirus; settings: biotinylated PAA glycan 2 μg/ml, VP8* 10 μg/ml
Description: as §3

VP8* P[25] = assay: ELISA-like binding assay to biotinylated HBGAs; parameters: species or system rotavirus; settings: biotinylated PAA glycan 2 μg/ml, VP8* 10 μg/ml
Description: as §3

VP8* P[11] = assay: ELISA-like binding assay to biotinylated HBGAs; parameters: species or system rotavirus; settings: biotinylated PAA glycan 2 μg/ml, VP8* 10 μg/ml
Description: as §3

VP8* P[4] = assay: ELISA-like binding assay to biotinylated HBGAs; parameters: species or system human rotavirus; settings: biotinylated PAA glycan 2 μg/ml, VP8* 10 μg/ml
Description: as §3

[2] = tested on: VP8* P[8]c binding to LNB; assay: Binding blocking assay, immobilized LNB; parameters: species or system human rotavirus; settings: soluble sugar at 20 mM
Method: as §1, §2

`C[C@H](O)[C@@H](O)[C@@H](O)[C@H](O)C=O` [L-fucose] was tested, and the “effect on the binding of VP8* to the H1 antigen” value [1] was “significantly increased the binding”.

With GlcNAc-α1,3-(Fucα1,2)-Gal [Atri] the “binding (ELISA-like)” value (VP8* P[8]) was “low binding”, the “binding (ELISA-like)” value (VP8* P[9]) was “recognized” and the “binding (ELISA-like)” value (VP8* P[14]) was “recognized”. The “binding (ELISA-like)” value (VP8* P[25]) was “recognized”.

`O=C[C@H](O)[C@@H](O)[C@@H](O)[C@H](O)CO` [D-galactose] was tested, and the “reduction in the binding to the H1 antigen” value [1] was 14.7%.

`CC(=O)NC1C(O)OC(CO)C(OC2OC(CO)C(O)C(O)C2OC2OC(C)C(O)C(O)C2O)C1O` (stereo not drawn) [H2, Fuc-α1,2-Gal-β1,4-GlcNAc] was tested, and the “binding (ELISA-like)” value (VP8* P[11]) was “recognized”.

For “Fuc-α1,2-Gal-β1,3-[Fuc-α1,4-]GlcNAc [Lewis^b]”, the “binding (ELISA-like)” value (VP8* P[8]) was “very low or absence of binding” and the “binding (ELISA-like)” value (VP8* P[4]) was “very low or absence of binding”.

`CC(=O)N[C@H]1C(O)O[C@H](CO)[C@H](O)[C@@H]1O[C@@H]1O[C@H](CO)[C@H](O)[C@H](O)[C@H]1O` (stereo partly drawn) [GNB, Gal-β1,3-GalNAc] was tested, and the “reduction of the binding of VP8* P[8]c to LNB” value [2] was 44.1% and the “reduction in the binding to the H1 antigen” value [1] was 30.1%.
